Laboratory results as given in patent US20170275650A1, “ENDOSOMAL ESCAPE DOMAINS FOR […] OF MACR[…] CELLS” (priority 2014, published 2017).
“Also recorded” adds a separate entry of the source. Where no end group is shown, it is not given here.

System: GFPβ1-10 expressing H1299c#G3 cells
Test: split GFP fluorescence complementation transduction assay (FACS)
Type: cell-based, human
Settings: for GFP fluorescence / transduction compared to parental GFPβ11-(S-S)-TAT: dose-dependent comparison, up to 60 μM, FACS (FIG. 4, 5); for GFP fluorescence, head-to-head comparison of PTD/CPP delivery domains: 30 μM GFPβ11-(S-S)-PTD/CPP peptide, FACS (FIG. 3B, C); for escape efficiency compared to the six PEG unit (P6) spacer: GFPβ11-(S-S)-TAT-PEG(n)-GWWG series (FIG. 4)
Method: Peptide transduction. All transduction experiments were performed in 48-well plates. An optimized protocol was established. First, 15,000 or 20,000 cells were plated in each well. Next day, the indicated peptides were pipetted into eppendorf tubes. Transduction buffer (60% OptiMEM and 40% PBS) was added to peptide (100 μl total volume), directly mixed by pipetting up and down five times and then immediately transferred to cells. All pipetting steps were done in a laminar flow cell culture hood and standardized to 15 min for each plate before transferring the plate of cells to a 37° C. CO2 incubator for 1.5 h before addition of 500 μl DMEM supplemented with 10% FBS and another incubation round for 3.5 h in the 37° C. CO2 incubator (alternatively cells were incubated 2 h with peptides and another 4 h with DMEM, 10% FBS (FIG. 8b, c, d). For the transduction time-course, cells were incubated with peptides in transduction buffer until indicated time-points. All cells were trypzinized and collected in 250 μl OptiMEM without phenol red and analyzed by FACS (GFP, FSC/SSC). 4000 viable cells were analyzed per sample. Data is presented as fold change in fluorescence compared to non-treated cells.
To address these problems, the disclosure provides a self-assembling, bimolecular or split GFP fluorescence complementation system that was originally designed to tag and monitor proteins. GFP is composed of 11 β-strands that form a barrel structure allowing for peptidyl backbone cyclization and formation of a fluorescent chromophore. […] Importantly, co-incubation of GFPβ1-10 with the GFPβ11 peptide in trans efficiently reconstitutes GFP fluorescent chromophore bond and GFP fluorescence (FIG. 1a). To study PTD-mediated delivery, cell lines were generated that constitutively expressed the non-fluorescent GFPβ1-10 fragment and treated them in trans with a GFPβ11-PTD/CPP peptide to restore GFP fluorescence.
Cell clones of various human cell lines constitutively expressing the non-fluorescent large GFPβ1-10 fragment, including H1299 non-small cell lung carcinoma, HaCaT immortalized keratinocytes, and MDA-MB-231 and MCF7 breast carcinomas, and assayed for reconstituted intracellular GFP fluorescence after treatment with transducible GFPβ11-PTD/CPP peptides by FACS (FIG. 1a). Starting with human H1299 cells, known to be a good model for PTD/CPP-mediated uptake, two GFPβ1-10 expressing clones were generated (c#G3 and c#G4) (FIG. 8a). GFPβ1-10 expressing H1299c#G3 cells were treated for 1.5 h with increasing amounts of transducible GFPβ11-TAT peptide (0-60 μM), followed by an additional 3.5 h in DMEM supplemented with 10% FBS. At 5 h post-addition of GFPβ11-TAT peptide, cells were trypsinized and live cell assayed by FACS.

Row | Substance | GFP fluorescence / transduction compared to parental GFPβ11-(S-S)-TAT | GFP fluorescence, head-to-head comparison of PTD/CPP delivery domains | also measured
1 | RDHMVLHEYVNAAGIT-GGSGGC-(5-5)-CGG-RKKRRQRRR-(PEG)6-GWG [GFPβ11-(S-S)-TAT-P6-GWG] | no net effect |  | 
2 | RDHMVLHEYVNAAGIT-GGSGGC-(S-S)-CGG-GALFLGFLGAAGSTMGAWSQPKKKRKV (chain 1 RDHMVLHEYVNAAGITGGSGGC; chain 2 CGGGALFLGFLGAAGSTMGAWSQPKKKRKV; also: disulfide to a chain's N/C-terminus) [GFPβ11-(S-S)-MPG] |  | only slightly above background | 
3 | RDHMVLHEYVNAAGIT-GGSGGC-(S-S)-CGG-KKKKKKKK (chain 1 RDHMVLHEYVNAAGITGGSGGC; chain 2 CGGKKKKKKKK; also: disulfide to a chain's N/C-terminus) [GFPβ11-(S-S)-8xLys] |  | failed to induce GFP fluorescence to any high degree | GFP fluorescence after addition of Chloroquine (30 μM peptide plus 100 μM Chloroquine (FIG. 3C)): failed to induce GFP fluorescence to any high degree
4 | RDHMVLHEYVNAAGIT-GGSGGC-(S-S)-CGG-LLIILRRRIRKQAHAHSK [GFPβ11-(S-S)-pVEC] |  | only slightly above background | 
5 | RDHMVLHEYVNAAGIT-GGSGGC-(S-S)-CGG-RKKRRQRRR-(PEG)6-GFFG (disulfide bond, (PEG)6-GFFG) [GFPβ11-(S-S)-TAT-P6-GFFG] | no net effect |  | 
6 | RDHMVLHEYVNAAGIT-GGSGGC-(S-S)-CGG-RKKRRQRRR-(PEG)6-GFWG [GFPβ11-(S-S)-TAT-P6-GFWG] | two-fold increase |  | 
7 | RDHMVLHEYVNAAGIT-GGSGGC-(S-S)-CGG-RKKRRQRRR-(PEG)6-GG [GFPβ11-(S-S)-TAT-P6-GG] | lower uptake than GFPβ11-(S-S)-TAT peptide |  | 
8 | RDHMVLHEYVNAAGIT-GGSGGC-(S-S)-CGG-RKKRRQRRR-(PEG)6-GWGGWG [GFPβ11-(S-S)-TAT-P6-WGGW] |  |  | enhancement compared to the -GWWG motif (PEG6-spaced EED peptides (FIG. 5A-D)): decreased the enhancement approximately two-fold
9 | RDHMVLHEYVNAAGIT-GGSGGC-(S-S)-CGG-RKKRRQRRR-(PEG)6-GWWG [GFPβ11-(S-S)-TAT-P6-GWWG] | retained enhanced cytoplasmic delivery; also recorded: four-fold increase |  | 
10 | RDHMVLHEYVNAAGIT-GGSGGC-(S-S)-CGG-RKKRRQRRR-(PEG)12-GWWG (disulfide bond, (PEG)12-GWWG) [GFPβ11-(S-S)-TAT-P12-WW] |  |  | escape efficiency compared to the six PEG unit (P6) spacer: lower escape efficiency
11 | RDHMVLHEYVNAAGIT-GGSGGC-(S-S)-CGG-RKKRRQRRR-(PEG)18-GWWG (disulfide bond, (PEG)18-GWWG) [GFPβ11-(S-S)-TAT-P18-WW] | reduced GFPβ11 delivery below that of the control GFPβ11-(S-S)-TAT |  | escape efficiency compared to the six PEG unit (P6) spacer: lower escape efficiency
12 | RDHMVLHEYVNAAGIT-GGSGGC-(S-S)-CGG-RRRRRRRR (chain 1 RDHMVLHEYVNAAGITGGSGGC; chain 2 CGGRRRRRRRR; also: disulfide to a chain's N/C-terminus) [GFPβ11-(S-S)-8xArg] |  | significantly better uptake | 
